This experiment concerns the target T1, IL-1β (Homo sapiens, UniProt P01584).
T1 construct: purchased BioLegend 579404
The experiment in a line: IL-6 assay in MRC5 cells: inhibition of IL-1β induced IL-6 secretion (AlphaLISA). The following applies: inhibition of IL-1β induced IL-6 secretion in MRC5 cells; read-out: MRC5 IC50. The class given is cell-based. A digest of the protocol:
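Compound was pre-incubated 1 h at ambient temperature with recombinant human IL-1β at 2λ EC80 before adding human lung fibroblast MRC5 cells (3000/well) in EMEM with 0.025% BSA. After overnight culture at 37 °C, 5% CO2, secreted IL-6 in conditioned medium was measured by AlphaLISA; IC50 from 4-parameter logistic fits.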
(In general: In Alpha technology, singlet oxygen from a donor bead excites a nearby acceptor bead.)

Drawing on patent US20260242419A1, “A CYCLIC PEPTIDE FOR TRAPPING INTERLEUKIN-1 BETA” (Merck Sharp & Dohme LLC, priority 2023, published 2026), this text covers IC50 for 9 compounds.

For orientation: IC50 means the midpoint of a concentration-inhibition curve.

Starred links: 1 amine or outer side, 2 acyl side, 3 side chain; linkers in the order of their positions; H or OH if unused. Non-standard residues stand in square brackets, D forms with d. Residues, ends and D or L forms follow the SMILES beside them. Phe(4-(cis-4-COOH-cHex)) = N[C@@H](Cc1ccc([C@H]2CC[C@@H](C(=O)O)CC2)cc1)C(=O)O; dPro(4R-(4-pyridylmethyl)) = O=C(O)[C@H]1C[C@@H](Cc2ccncc2)CN1; X17 = CN(C)C(=O)c1ccc(-c2ccc(C[C@H](N[*:1])C(=O)[*:2])cc2)cc1; Trp(βS-Me,4-F) = C[C@@H](c1c[nH]c2cccc(F)c12)[C@H](N)C(=O)O; Bip(4'-CONH2) = NC(=O)c1ccc(-c2ccc(C[C@H](N)C(=O)O)cc2)cc1; Bip(4'-COOH) = N[C@@H](Cc1ccc(-c2ccc(C(=O)O)cc2)cc1)C(=O)O; Ala(1-bicyclo(1.1.1)pentyl) = N[C@@H](CC12CC(C1)C2)C(=O)O; Ala(pyrimidin-5-yl) = N[C@@H](Cc1cncnc1)C(=O)O; Phe(4-COOH) = N[C@@H](Cc1ccc(C(=O)O)cc1)C(=O)O; Bip = N[C@@H](Cc1ccc(-c2ccccc2)cc1)C(=O)O; Pro(cis-4-F) = O=C(O)[C@@H]1C[C@H](F)CN1; AEF = NCCOc1ccc(C[C@H](N)C(=O)O)cc1; d(αMeD) = C[C@@](N)(CC(=O)O)C(=O)O; 4Pal = N[C@@H](Cc1ccncc1)C(=O)O; aThr = C[C@H](O)[C@H](N)C(=O)O; d(αMeS) = C[C@@](N)(CO)C(=O)O; Dab = NCC[C@H](N)C(=O)O; Aib = CC(C)(N)C(=O)O; Sar = CNCC(=O)O

T1 sequence (P01584 117-269): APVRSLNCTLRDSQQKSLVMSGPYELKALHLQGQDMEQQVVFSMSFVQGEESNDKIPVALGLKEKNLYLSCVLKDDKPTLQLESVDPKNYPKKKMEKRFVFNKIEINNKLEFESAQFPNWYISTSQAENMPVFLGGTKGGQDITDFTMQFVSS

Regarding `C[C@@H](c1c[nH]c2cccc(F)c12)[C@@H]1NC(=O)[C@@H]2C[C@H](F)CN2C(=O)CNC(=O)[C@H](Cc2ccc(C(=O)O)cc2)NC(=O)[C@H](CC23CC(C2)C3)NC(=O)[C@H](Cc2ccc([C@H]3CC[C@@H](C(=O)O)CC3)cc2)NC(=O)[C@H]2C[C@@H](Cc3ccncc3)CN2C(=O)CNC(=O)[C@H](CCN)NC(=O)[C@H](CCC(N)=O)NC(=O)[C@H](Cc2cncnc2)NC(=O)[C@@](C)(CC(=O)O)NC(=O)[C@H](Cc2c[nH]c3ccccc23)NC(=O)[C@H](CO)NC(=O)C(C)(C)NC1=O` [Example 335] (cyclo([Phe(4-(cis-4-COOH-cHex))][Ala(1-bicyclo(1.1.1)pentyl)][Phe(4-COOH)]G[Pro(cis-4-F)][Trp(βS-Me,4-F)][Aib]SW[d(αMeD)][Ala(pyrimidin-5-yl)]Q[Dab]G[dPro(4R-(4-pyridylmethyl))])), the IC50 is 0.022 nM.

In the case of `CC(=O)NCCOc1ccc(C[C@@H]2NC(=O)[C@H]3C[C@@H](Cc4ccncc4)CN3C(=O)CNC(=O)[C@H](CCN)NC(=O)[C@H](CCC(N)=O)NC(=O)[C@H](Cc3ccccc3)NC(=O)C(C)(C)NC(=O)[C@H](Cc3c[nH]c4ccccc34)NC(=O)[C@H](CCC(=O)O)NC(=O)C(C)(C)NC(=O)[C@H]([C@@H](C)c3c[nH]c4cccc(F)c34)NC(=O)[C@@H]3C[C@H](F)CN3C(=O)CNC(=O)[C@H](Cc3ccc(C(=O)O)cc3)NC(=O)[C@H](Cc3ccncc3)NC2=O)cc1` [Example 336] (cyclo([AEF](Ac)[4Pal][Phe(4-COOH)]G[Pro(cis-4-F)][Trp(βS-Me,4-F)][Aib]EW[Aib]FQ[Dab]G[dPro(4R-(4-pyridylmethyl))])), the IC50 is 0.023 nM. In the case of `C[C@H](O)[C@@H]1NC(=O)[C@@](C)(CC(=O)O)NC(=O)[C@H](Cc2c[nH]c3ccccc23)NC(=O)[C@H](CO)NC(=O)C(C)(C)NC(=O)[C@H]([C@@H](C)c2c[nH]c3cccc(F)c23)NC(=O)[C@@H]2C[C@H](F)CN2C(=O)CNC(=O)[C@H](Cc2ccc(C(=O)O)cc2)NC(=O)[C@H](Cc2ccncc2)NC(=O)[C@H](Cc2ccc(-c3ccc(C(=O)O)cc3)cc2)NC(=O)[C@H]2C[C@@H](Cc3ccncc3)CN2C(=O)CN(C)C(=O)[C@H](CCN)NC(=O)[C@H](CCC(N)=O)NC1=O` [Example 337] (cyclo([Bip(4'-COOH)][4Pal][Phe(4-COOH)]G[Pro(cis-4-F)][Trp(βS-Me,4-F)][Aib]SW[d(αMeD)][aThr]Q[Dab][Sar][dPro(4R-(4-pyridylmethyl))])) it was 0.022 nM; in that of `C[C@@H](c1c[nH]c2cccc(F)c12)[C@@H]1NC(=O)[C@@H]2C[C@H](F)CN2C(=O)CNC(=O)[C@H](Cc2ccc(C(=O)O)cc2)NC(=O)[C@H](Cc2ccncc2)NC(=O)[C@H](Cc2ccc(-c3ccc(C(=O)N(C)C)cc3)cc2)NC(=O)[C@H]2C[C@@H](Cc3ccncc3)CN2C(=O)CNC(=O)[C@H](CCN)NC(=O)[C@H](CCC(N)=O)NC(=O)[C@H](Cc2cncnc2)NC(=O)[C@@](C)(CO)NC(=O)[C@H](Cc2c[nH]c3ccccc23)NC(=O)[C@H](CO)NC(=O)C(C)(C)NC1=O` [Example 338] (cyclo([X17][4Pal][Phe(4-COOH)]G[Pro(cis-4-F)][Trp(βS-Me,4-F)][Aib]SW[d(αMeS)][Ala(pyrimidin-5-yl)]Q[Dab]G[dPro(4R-(4-pyridylmethyl))])), 0.018 nM.

`C[C@@H](c1c[nH]c2cccc(F)c12)[C@@H]1NC(=O)[C@@H]2C[C@H](F)CN2C(=O)CNC(=O)[C@H](Cc2ccc(C(=O)O)cc2)NC(=O)[C@H](Cc2ccncc2)NC(=O)[C@H](Cc2ccc(-c3ccc(C(N)=O)cc3)cc2)NC(=O)[C@H]2C[C@@H](Cc3ccncc3)CN2C(=O)CNC(=O)[C@H](CCN)NC(=O)[C@H](CCC(N)=O)NC(=O)[C@H](Cc2cncnc2)NC(=O)[C@@](C)(CO)NC(=O)[C@H](Cc2c[nH]c3ccccc23)NC(=O)[C@H](CO)NC(=O)C(C)(C)NC1=O` [Example 339] (cyclo([Bip(4'-CONH2)][4Pal][Phe(4-COOH)]G[Pro(cis-4-F)][Trp(βS-Me,4-F)][Aib]SW[d(αMeS)][Ala(pyrimidin-5-yl)]Q[Dab]G[dPro(4R-(4-pyridylmethyl))])): the 50% inhibitory concentration (IC50) turned out to be 0.024 nM. `C[C@@H](c1c[nH]c2cccc(F)c12)[C@@H]1NC(=O)[C@@H]2C[C@H](F)CN2C(=O)CNC(=O)[C@H](Cc2ccc(C(=O)O)cc2)NC(=O)[C@H](Cc2ccncc2)NC(=O)[C@H](Cc2ccc(-c3ccccc3)cc2)NC(=O)[C@H]2C[C@@H](Cc3ccncc3)CN2C(=O)CNC(=O)[C@H](CCN)NC(=O)[C@H](CCC(N)=O)NC(=O)[C@H](Cc2cncnc2)NC(=O)[C@@](C)(CO)NC(=O)[C@H](Cc2c[nH]c3ccccc23)NC(=O)[C@H](CO)NC(=O)C(C)(C)NC1=O` [Example 340] (cyclo([Bip][4Pal][Phe(4-COOH)]G[Pro(cis-4-F)][Trp(βS-Me,4-F)][Aib]SW[d(αMeS)][Ala(pyrimidin-5-yl)]Q[Dab]G[dPro(4R-(4-pyridylmethyl))])): the IC50 amounted to 0.021 nM. Consider `C[C@@H](c1c[nH]c2cccc(F)c12)[C@@H]1NC(=O)[C@@H]2C[C@H](F)CN2C(=O)CNC(=O)[C@H](Cc2ccc(C(=O)O)cc2)NC(=O)[C@H](CC23CC(C2)C3)NC(=O)[C@H](Cc2ccc(-c3ccc(C(=O)N(C)C)cc3)cc2)NC(=O)[C@H]2C[C@@H](Cc3ccncc3)CN2C(=O)CNC(=O)[C@H](CCN)NC(=O)[C@H](CCC(N)=O)NC(=O)[C@H](Cc2cncnc2)NC(=O)[C@@](C)(CC(=O)O)NC(=O)[C@H](Cc2c[nH]c3ccccc23)NC(=O)[C@H](CO)NC(=O)C(C)(C)NC1=O` [Example 341] (cyclo([X17][Ala(1-bicyclo(1.1.1)pentyl)][Phe(4-COOH)]G[Pro(cis-4-F)][Trp(βS-Me,4-F)][Aib]SW[d(αMeD)][Ala(pyrimidin-5-yl)]Q[Dab]G[dPro(4R-(4-pyridylmethyl))])), for which the concentration for half-maximal inhibition (IC50) is 0.024 nM. In the case of `C[C@@H](c1c[nH]c2cccc(F)c12)[C@@H]1NC(=O)[C@@H]2C[C@H](F)CN2C(=O)CNC(=O)[C@H](Cc2ccc(C(=O)O)cc2)NC(=O)[C@H](CC23CC(C2)C3)NC(=O)[C@H](Cc2ccc(-c3ccc(C(N)=O)cc3)cc2)NC(=O)[C@H]2C[C@@H](Cc3ccncc3)CN2C(=O)CNC(=O)[C@H](CCN)NC(=O)[C@H](CCC(N)=O)NC(=O)[C@H](Cc2cncnc2)NC(=O)[C@@](C)(CC(=O)O)NC(=O)[C@H](Cc2c[nH]c3ccccc23)NC(=O)[C@H](CO)NC(=O)C(C)(C)NC1=O` [Example 342] (cyclo([Bip(4'-CONH2)][Ala(1-bicyclo(1.1.1)pentyl)][Phe(4-COOH)]G[Pro(cis-4-F)][Trp(βS-Me,4-F)][Aib]SW[d(αMeD)][Ala(pyrimidin-5-yl)]Q[Dab]G[dPro(4R-(4-pyridylmethyl))])) it was 0.022 nM.

Consider `C[C@@H](c1c[nH]c2cccc(F)c12)[C@@H]1NC(=O)[C@@H]2C[C@H](F)CN2C(=O)CNC(=O)[C@H](Cc2ccc(C(=O)O)cc2)NC(=O)[C@H](CC23CC(C2)C3)NC(=O)[C@H](Cc2ccc(-c3ccccc3)cc2)NC(=O)[C@H]2C[C@@H](Cc3ccncc3)CN2C(=O)CNC(=O)[C@H](CCN)NC(=O)[C@H](CCC(N)=O)NC(=O)[C@H](Cc2cncnc2)NC(=O)[C@@](C)(CC(=O)O)NC(=O)[C@H](Cc2c[nH]c3ccccc23)NC(=O)[C@H](CO)NC(=O)C(C)(C)NC1=O` [Example 343] (cyclo([Bip][Ala(1-bicyclo(1.1.1)pentyl)][Phe(4-COOH)]G[Pro(cis-4-F)][Trp(βS-Me,4-F)][Aib]SW[d(αMeD)][Ala(pyrimidin-5-yl)]Q[Dab]G[dPro(4R-(4-pyridylmethyl))])), for which the half-maximal inhibitory concentration (IC50) stood at 0.026 nM.
